Test: Solubility tests of UV filters in solubilizing agents
Type: physicochemical
Settings: UV filter (BPH-02); stirred seven days at 25° C.; UV/Vis-spectrometry
Experimental: 2 ml of the solubilizing agent are filled into a 20 ml vial with cap. Afterwards 0.02 g (1%) of the respective substance (UV Filter) are weighed and added to the solvent. The vial is placed into a thermostat-controlled water bath, wherein the suspension/solution is stirred during seven days at 25° C.
If the substance added to the solubilizing agent is fully soluble, additional substance is added until precipitation can be observed.
After seven days, the sample is centrifuged for 30 minutes at 13000 rpm at 25° C. The supernatant is transferred into a small beaker. In case the sample is still turbid, it is filtered through a 0.2 μm non-steril Membrex 25 PET filter. Clear solutions must not be filtered. When a clear solution is obtained, the concentration of the substance is determined with UV/Vis-spectrometry. For this purpose, the sample may be diluted with a suitable solvent or, in case of lower concentrations, may be measured as it s.
The concentration of the UV-spectroscopic results is measured with the extinction coefficient, which is determined independently with a solvent of similar polarity like that one used for dilution of the saturated solutions.
The solubility can be calculated using the Lambert-Beer-Law equation.

Solubility [%] of UV filter compound of formula (BPH-02) in solubilizing agent [%]	Compound
>40	CCCCCCCCCC(=O)N(C)C [Spectrasolv DMDA, reference compound]
12.2	Iso-C18-monolactate
11.2	C 23-Guerbet-monolactate

Same assay, conditions: UV filter (HTP-02); stirred seven days at 25° C.; UV/Vis-spectrometry

Solubility [%] of UV filter compound of formula (HTP-02) in solubilizing agent [%]	Compound
40	CCCCCCCCCC(=O)N(C)C [Spectrasolv DMDA, reference compound]
3.3	Iso-C18-monolactate
2.9	C 23-Guerbet-monolactate

Same assay, conditions: UV filter (TAT-02); stirred seven days at 25° C.; UV/Vis-spectrometry

Solubility [%] of UV filter compound of formula (TAT-02) in solubilizing agent [%]	Compound
23	CCCCCCCCCC(=O)N(C)C [Spectrasolv DMDA, reference compound]
13.4	Iso-C18-monolactate
11.9	C 23-Guerbet-monolactate
